# PMC2806525, “Proteinase-activated receptor-2 mediated inhibition of TNFα-stimulated JNK activation — A novel paradigm for Gq/11 linked GPCRs” (Cellular Signalling, 2010)
# Residues, ends and D or L forms follow the SMILES beside them.
# Legend:
# TNFR1/TRADD = TNFR1/TRADD complex formation (TNFR1 immuno-precipitation, TRADD immuno-blot), PAR2 expressing cells; type: cell-based, human; details: TNFα 10 ng/ml 30 min, versus basal
# Procedure: (§1) Human skin epithelial cells NCTC2544 were maintained in M199 medium with Earl's salt supplement, 10% (v/v) foetal calf serum, L-glutamine (27 µg/ml), penicillin (250 U/ml), and streptomycin (25 mg/ml). NCTC2544 cells stably expressing human PAR2 (clone G) were maintained in complete M199 medium containing 400 μg/ml of Geneticin for selection pressure and passaged using Versene (2% EDTA/PBS). EAhy-926 cells were produced by hybridizing human umbilical vein endothelial cells (HUVECs) with the epithelial cell line A549 [27] and maintained in Dulbecco's Modified Eagle's Medium (DMEM) supplemented with 10% foetal calf serum (FCS), hypoxanthine/aminopterin/thymidine (HAT supplement), penicillin (250 U/ml) and streptomycin (25 mg/ml), and cells were passaged using Versene.
# Proteins were separated by 10% SDS–PAGE and transferred onto nitrocellulose. The membranes were blocked for non-specific binding for 2 h in 2% BSA (w/v) diluted in NATT buffer (50 mM Tris–HCl, 150 mM NaCl, 0.2% (v/v) Tween-20). The blots were then incubated overnight with 50 ng/ml primary antibody diluted in 0.2% BSA (w/v) in NATT buffer. The blots were washed with NATT buffer for 90 min and incubated with HRP-conjugated secondary antibody (20 ng/ml in 0.2% BSA (w/v) diluted in NATT buffer) for 2 h. After a further 90 min wash, the blots were subjected to ECL reagent and exposed to Kodak X-ray film.
# For immuno-precipitation of TNFR1, equal amounts of pre-cleared cell lysates were incubated in Tris–HCl buffer, pH 7.4, containing 50 mM NaCl, 1 mM EDTA, 1 mM EGTA, 1% (w/v) Triton X-100, and 0.5% (w/v) Nonidet P-40, with 2 μg TNFR1 antibody, pre-coupled to protein G, for 3 h. Lysates were recovered by sequential washes in solubilisation buffer and in the same buffer lacking detergents. Precipitates were assessed for TRADD or RIP content using Western blotting.
# Fig. 7 PAR2 mediated TNFR1 adapter protein disruption in PAR2 expressing cells. In Panel A, cells were pre-treated with peptide (100 μM) or vehicle prior to stimulation with TNFα (10 ng/ml) for 30 min. Lysates were immuno-precipitated for TNFR1 and immuno-blotted for TRADD and/or RIP, as outlined in the Methods section. In Panel B cells were pre-treated with 100 nM YM254890 or 3 μM GF109203X for 30 min prior to pre-treatment with peptide (100 μM), for 30 min, then incubated for a further 30 min with TNFα (10 ng/ml). TNFR1 immuno-precipitates were immuno-blotted for TRADD. Each gel is representative of at least three experiments.
# TNFR1/RIP = TNFR1/RIP complex formation (TNFR1 immuno-precipitation, RIP immuno-blot), PAR2 expressing cells; type: cell-based, human; details: TNFα 10 ng/ml 30 min, versus basal
# Procedure: as §1
# Proteins were separated by 10% SDS–PAGE and transferred onto nitrocellulose. The membranes were blocked for non-specific binding for 2 h in 2% BSA (w/v) diluted in NATT buffer (50 mM Tris–HCl, 150 mM NaCl, 0.2% (v/v) Tween-20). […]
# For immuno-precipitation of TNFR1, equal amounts of pre-cleared cell lysates were incubated in Tris–HCl buffer, pH 7.4, containing 50 mM NaCl, 1 mM EDTA, 1 mM EGTA, 1% (w/v) Triton X-100, and 0.5% (w/v) Nonidet P-40, with 2 μg TNFR1 antibody, pre-coupled to protein G, for 3 h. […] Precipitates were assessed for TRADD or RIP content using Western blotting. […]
# ERK = ERK activation, PAR2 NCTC2544 cells; type: cell-based, human; details: response to TNFα; data not shown
# Procedure: as §1
# JNK = test: TNFα-stimulated JNK phosphorylation and activity, PAR2 NCTC2544 cells; type: cell-based, human; details: TNFα 10 ng/ml 30 min, untreated cells
# Procedure: as §1
# Proteins were separated by 10% SDS–PAGE and transferred onto nitrocellulose. […]
# To measure JNK activity, cells were stimulated as appropriate and the reaction terminated by rapid aspiration and the addition of ice-cold PBS. […] Phosphorylation of GST-c-Jun was then determined by autoradiography.
# Fig. 6 Gq/11 is essential for PAR2 mediated inhibition of JNK activation by TNFα. […] Samples were assessed for phospho-JNK levels (Panels A and D) or JNK activity (Panel B) as outlined in the Methods section. Gels from JNK activity assays were quantified by densitometry (Panel C). […]
# human PAR2 [1] = molecular target: T1, human PAR2 (Homo sapiens, UniProt P55085); test: TNFα-stimulated JNK activity (in vitro c-Jun phosphorylation), PAR2 agonist pre-incubation, PAR2 NCTC2544 cells (clone G); type: cell-based; details: 30 min pre-incubation, then TNFα 30 min, mean ± s.e.m, at least 4 experiments
# T1 construct: expressed in transfected cells
# T1 sequence (P55085 26-397): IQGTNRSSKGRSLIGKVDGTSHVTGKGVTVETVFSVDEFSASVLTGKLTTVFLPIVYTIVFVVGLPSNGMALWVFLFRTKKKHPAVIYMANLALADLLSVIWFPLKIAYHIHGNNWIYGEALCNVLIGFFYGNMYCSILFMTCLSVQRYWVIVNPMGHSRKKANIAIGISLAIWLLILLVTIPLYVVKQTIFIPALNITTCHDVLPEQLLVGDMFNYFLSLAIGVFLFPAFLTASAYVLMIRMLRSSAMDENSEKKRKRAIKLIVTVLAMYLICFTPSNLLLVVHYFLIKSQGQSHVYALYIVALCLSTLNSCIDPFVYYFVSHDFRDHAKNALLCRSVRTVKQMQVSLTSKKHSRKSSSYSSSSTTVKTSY
# Procedure: as §1
# To measure JNK activity, cells were stimulated as appropriate and the reaction terminated by rapid aspiration and the addition of ice-cold PBS. […] Phosphorylation of GST-c-Jun was then determined by autoradiography. […]
# Fig. 1 PAR2 activation mediates inhibition of TNFα-stimulated JNK activity and phosphorylation in PAR2 NCTC2544 cells. […] Samples were assessed for JNK activity (Panel A) or phospho-JNK levels (Panel C) as outlined in the Methods section. Gels from JNK assays were quantified (Panel B). Each value represents the mean ± s.e.m from at least 4 experiments and data was quantified by densitometry. ⁎P < 0.05, ⁎⁎P < 0.01 compared to TNFα alone.
# (§2) Fig. 4 Concentration response effects of PAR2 peptides for activation of JNK and inhibition of TNFα-stimulated JNK. PAR2 expressing NCTC2544 cells (clone G) were incubated with increasing concentrations of SLIGKV-OH or 2f-LIGKV-OH for 30 min and assayed for JNK activity (Panel B) or stimulated for a further 30 min with TNFα (+) before JNK activity was assessed (Panel A). Samples were assessed for JNK activity as outlined in the Methods section. Gels from JNK assays were quantified (Panel C). Each value represents the mean ± s.e.m from at least 4 experiments and data was quantified by densitometry.
# human PAR2 [2] = molecular target: T1, human PAR2; test: JNK activity, agent alone, PAR2 NCTC2544 cells (clone G); type: cell-based; details: 30 min, no TNFα, mean ± s.e.m, at least 4 experiments
# Procedure: as §1
# To measure JNK activity, cells were stimulated as appropriate and the reaction terminated by rapid aspiration and the addition of ice-cold PBS. The cells were solubilised in 20 mM HEPES buffer, pH 7.7, containing 50 mM NaCl, 0.1 mM EDTA, 0.1 mM Na3VO4, 0.1 mM PMSF, 10 mg/ml aprotinin, 10 mg/ml leupeptin, and 1% (w/v) Triton X-100. Lysates were clarified by centrifugation for 5 min at 13,000 rpm and equal amounts of protein were incubated with 20 μg of GST-c-Jun-(5–89) immobilized on glutathione-Sepharose at 4 °C for 3 h. […] Phosphorylation of GST-c-Jun was then determined by autoradiography. […]
# as §2
# β2 [3] = details: ref [34]; cited from earlier work
# Source text: Thus, we can discern two agonist-mediated directed events which relate to the activation of JNK. This type of m ...
# β2 [4] = details: ref [34]; cited from earlier work; remark: listed apart in the source
molecule,measurement,setting,value
tumour necrosis factor-α [TNFα],TRADD recovery with TNFR1 on stimulation,TNFR1/TRADD,marked increase in both TRADD and RIP recovery
same,RIP recovery with TNFR1 on stimulation,TNFR1/RIP,marked increase in both TRADD and RIP recovery
same,ERK activation,ERK,negligible
same,TNFα stimulation of JNK phosphorylation and activity,JNK,stimulated JNK phosphorylation and activity as expected
CC[C@H](C)[C@H](NC(=O)[C@H](CC(C)C)NC(=O)[C@@H](N)CO)C(=O)NCC(=O)N[C@@H](CCCCN)C(=O)N[C@H](C(=O)O)C(C)C [SLIGKV-OH] (H-SLIGKV-OH),IC50,"human PAR2 [1]; densitometry, read-out: IC50, inhibition of TNFα-stimulated JNK activity",6.24 ± 1.32 µM
same,% inhibition of TNFα-stimulated JNK activity,human PAR2 [1]; maximal efficacy comparison,93.567 ± 6.882%
same,EC50,"human PAR2 [2]; densitometry, read-out: EC50, stimulation of JNK activity by peptide alone",10.1 ± 3.3 µM
same,% stimulation of JNK activity alone,human PAR2 [2]; maximal efficacy comparison,43.950 ± 6.482%
CC(C)NCC(O)COc1cccc2ccccc12 (stereo not shown) [propranolol],"cAMP accumulation, functional behaviour",β2 [3],inverse agonist
same,"ERK activation, functional behaviour",β2 [4],partial agonist
